In PubChem BioAssay AID179 (DTP/NCI, 2004) one finds EC50, IC50 and outcome data, which are given here for 71 compounds.

The test system of the experiment is CEM cells HIV-1 protection, formazan growth assay. Description: NCI AIDS Antiviral Assay. Conditions: for IC50: measured here: growth of uninfected CEM cells. The procedure, abridged:
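Five concentrations of each compound were applied to infected and uninfected human CEM cells. Protection from HIV-1 was judged from growth measured with a soluble formazan assay.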

Where “and” joins values, the source holds several entries; their conditions need not be identical. Identical values can stand only once. Calls of active or inactive are those of the source.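 The calls were made as follows: active = compounds giving half or more protection of infected cells from virus-caused growth loss, again on retest; inactive = the rest.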

For orientation: EC50 means the concentration that produces a half-maximal response. The term IC50 denotes the concentration that inhibits the measured activity by half. A higher IC50 goes with lower potency. With `COc1ccc(CCc2nccn2C)cc1OC`, the EC50 is over 200 µM and the IC50 is over 200 µM. For the compound `CCCCCCCCCCCCCCCCC(=O)NCC(=O)NCC(=O)NC(Cc1ccccc1)C(=O)Oc1ccc([N+](=O)[O-])cc1` (centres undefined), the EC50 is over 200 µM and the IC50 came out at 18.2 µM. Regarding `CCOC(=O)C(Cc1c[nH]c2cc([N+](=O)[O-])ccc12)NS(=O)(=O)c1ccc2ccccc2c1` (centres undefined), the EC50 is over 15.5 µM and the IC50 was over 15.5 µM.

With `NC(N)=NS(=O)(=O)c1ccc(NC(=O)c2cccc3c(NNc4ccc(C(=O)O)cc4)c4ccccc4nc23)cc1`, the EC50 was over 200 µM and the IC50 was determined as 33.9 µM. The matching figures for `CCCCCCCCCCCCCCCCCCOCC(O)CO` (centres undefined): over 3.02 µM and over 3.02 µM. For the compound `O=C1C2=C(c3ccccc31)C(c1ccc(Cl)cc1)NC(=S)N2` (centres undefined), the EC50 was over 57.5 µM and the IC50 is 29.5 µM.

Consider `COc1ccc(NC(=O)CC(=O)NN2C(=O)/C(=C/c3ccc(N(CCC#N)CCC#N)cc3C)N=C2/C=C\c2ccccc2)cc1`, for which the outcome was inactive. In the case of `O=c1[nH]c(N/N=C\C(O)C(O)C(O)CO)nc2ccccc12` (centres undefined), the EC50 is over 200 µM; the IC50 was > 200 µM and 97.7 µM. As for `O=C1CCCCc2cccc(O)c21`, the EC50 is over 200 µM and the IC50 is over 200 µM. As to `O=C(C[N+]12CC=C(CO)C1C(O)CC2)c1ccc(Br)cc1` (centres undefined), the EC50 was over 575 µM and the IC50 was over 575 µM. As for `Brc1ccc(-c2ccc(-c3ccc(Br)s3)s2)s1`, the EC50 was over 200 µM and the half-inhibitory concentration (IC50) was over 200 µM.

Regarding `CCOC(=O)CC1=Nc2ccccc2SC1`, the outcome was inactive. For `CC(=O)OC12c3ccccc3C(c3ccccc31)C1C(=O)N(N=C(C)C)C(=O)C12` (centres undefined), the EC50 is over 200 µM and the IC50 was over 200 µM. Regarding `COc1cccc(/C=C/C(=O)c2sc(C(N)=S)nc2C)c1O`, the EC50 was over 11.2 µM and the IC50 was over 11.2 µM.

`O=C1CC2(CCN(Cc3ccccc3)CC2)CC(=O)N1`: the EC50 is over 200 µM and the IC50 was over 200 µM.

For the compound `Cc1cccc(NP2(Nc3cccc(C)c3)=NP(Nc3cccc(C)c3)(Nc3cccc(C)c3)=NP(Nc3cccc(C)c3)(Nc3cccc(C)c3)=NP(Nc3cccc(C)c3)(Nc3cccc(C)c3)=N2)c1`, the EC50 was over 200 µM and the IC50 was over 200 µM. `CC(=O)OC1(CSc2ccccc2)CCCCC1`: the EC50 was over 200 µM and the IC50 was determined as 49 µM. For `N#CN1C2CCC1CC(=O)C2`, the EC50 is 67.6 µM and the IC50 is 129 µM.

As for `CCOC(=O)c1sc(SSc2nc(C)c(C(=O)OCC)s2)nc1C`, the EC50 was over 200 µM and the IC50 was over 200 µM. Consider `CSc1nc2c(=O)oc(-c3ccc(Cl)cc3)nc2s1`, for which the EC50 is over 200 µM and the IC50 turned out to be 110 µM. On to `CCCCC1C(=O)N2C=C(c3ccccc3)c3ccccc3N2C1=O` (centres undefined), for which the EC50 is over 100 µM and the IC50 amounted to 60.3 µM. For the compound `CCOC(=O)C1=CC(C)(C(=O)OCC)Nc2c(nc(OC)[nH]c2=O)N1` (centres undefined), the EC50 is over 200 µM and the IC50 was over 200 µM. Turning to `Cc1c([N+](=O)[O-])c(=O)oc2ccc3c(=O)ccoc3c12`, the EC50 was over 50.1 µM and the IC50 worked out at 8.71 µM. For `CCOC(=O)Cc1ccc(Nc2nc3cc(C(F)(F)F)ccc3nc2C(=O)OCC)cc1`, the EC50 was over 100 µM and the IC50 is over 100 µM. With `N#Cc1sc2c(c1OC(=O)c1cccs1)c(=O)n(-c1ccccc1)c(=S)n2-c1ccccc1`, the EC50 is over 200 µM and the IC50 was determined as 6.03 µM. The matching figures for `O=c1[nH]nc(CNc2ccc(Cl)cc2Cl)c2ccccc12`: 55 µM and 58.9 µM.

Take `O=C1Nc2ccc(Cl)cc2C(=O)N2CCC[C@@H]12`: the EC50 was over 200 µM and the IC50 was over 200 µM. For the compound `O=C(CCc1nnc2s/c(=C\c3ccc4c(c3)OCO4)c(=O)n12)Nc1cc(Cl)ccc1Cl`, the EC50 was 72.4 µM and the IC50 came to 513 µM. With `CCOC(=O)c1c[nH]c2ccc3c(c2c1=O)S(=O)(=O)CC3` (tested in a mixture with another compound), the outcome was inactive. In the case of `CC(=O)OCC1OC(OC(C)=O)C(NC(=O)CI)C(OC(C)=O)C1OC(C)=O` (centres undefined), the EC50 is over 490 µM and the IC50 is 2.57 µM. In the case of `Cc1cccc(Nc2cn(COCc3ccccc3)c(=O)[nH]c2=O)c1`, the EC50 was over 200 µM and the IC50 came to 81.3 µM.

With `O=S(=O)(OC1CC12CCCCC2c1ccccc1)c1ccccc1` (centres undefined), the EC50 is over 200 µM and the IC50 was over 200 µM.

Turning to `COc1ccc2ccnc(Cc3ccc(OCc4ccccc4)c(OC)c3)c2c1`, the result was inactive. Consider `c1ccc2c(c1)N=C(c1cccc3ccccc13)CC(c1cccc3ccccc13)S2` (centres undefined), for which the EC50 was over 2.51 µM and the IC50 was over 2.51 µM.

Consider `CC(C)=[CH][Sb]([Br])([CH]=C(C)C)([CH]=C(C)C)[CH]=C(C)C`, for which the EC50 is over 589 µM and the IC50 turned out to be 3.02 µM.

In the case of `CC(=O)Nc1ccc(S(=O)(=O)N/N=C/CN2C(=O)c3ccccc3C2=O)cc1`, the EC50 was 26.9 µM and the IC50 was found to be 89.1 µM. Take `COc1ccc(NS(=O)c2ccc(OC)cc2)cc1` (centres undefined): the EC50 was over 200 µM and the IC50 was 15.8 µM.

As to `O=C1CCC2(c3ccccc3)Nc3ncccc3N12` (centres undefined), the EC50 was over 200 µM and the half-inhibitory concentration (IC50) is over 200 µM. Consider `COC(=O)C1=C(C(=O)OC)c2cc(OC)ccc2C(C(=S)N(C)C)S1` (centres undefined), for which the EC50 was over 200 µM and the IC50 was over 200 µM. In the case of `CN(C)CCN(C)CC1COC(C)(C)O1` (centres undefined), the outcome was inactive. In the case of `CN(C)C1=NC(=O)C(c2ccccc2)O1` (centres undefined), the EC50 is over 200 µM and the IC50 was over 200 µM. `Clc1ccc(CCn2ccc3ccccc32)c(Cl)c1`: the EC50 is over 200 µM and the IC50 was over 200 µM. Take `CCNCC1c2ccccc2-c2nc3ccccc3nc2-c2ccccc21`: the EC50 is over 60.3 µM and the IC50 was found to be 8.32 µM.

Turning to `COC(=O)/C(=N/NC(C)(C)C)C(C(=O)OC)C(=O)C(=O)Nc1nc2ccc([N+](=O)[O-])cc2s1` (centres undefined), the EC50 was over 53.7 µM and the IC50 was over 53.7 µM. As to `C=CCN(CC=C)C(=O)Nc1ccc(C(=O)N/N=C/c2cccc(OC)c2OC)cc1`, the EC50 was 89.1 µM and the IC50 was 170 µM. Consider `CCCCCC=C(c1cc(Br)c(OC)c(C(=O)OC)c1)c1cc(Br)c(OC)c(C(=O)OC)c1`, for which the EC50 is 26.9 µM and the IC50 was determined as 87.1 µM. Regarding `C=C1[C@H]2O[C@H]2[C@@H](OC(C)=O)[C@@]2(C)[C@@H](OC(C)=O)C[C@@H](OC(=O)CCC)[C@@](C)(O)[C@@H]2[C@@H](OC(C)=O)[C@]2(O)[C@@H](C)C(=O)O[C@H]2[C@H]1Cl`, the EC50 was over 200 µM and the IC50 is 174 µM. Regarding `O=c1[nH]nc(Cc2ccccc2)[nH]1`, the EC50 was over 200 µM and the IC50 is over 200 µM. Turning to `Cc1cn([C@H]2CS[C@@H](CO)CO2)c(=O)[nH]c1=O`, the outcome was inactive. In the case of `CCOC(=O)c1cn(C)c2c1C(=O)C(C(=O)OCC)CC(=O)N2` (centres undefined), the EC50 was over 288 µM and the IC50 is 178 µM. With `COc1ccccc1C1SC(c2ccccc2)(c2ccccc2)OC1=O` (centres undefined), the EC50 is over 3.98 µM and the IC50 is over 3.98 µM. Regarding `COc1ccc(NC(=O)C(C)Oc2ccc(OCC3CCCCC3)cc2)cc1` (centres undefined), the EC50 was over 26.3 µM and the IC50 is over 26.3 µM. As for `COc1ccc(C[C@H](N)C(=O)N2C[C@@H](CO)C[C@@H](n3ccc(=O)[nH]c3=O)C2)cc1`, the EC50 is over 309 µM and the IC50 is over 309 µM. On to `COC(=O)C(C(=O)C(=O)Nc1ccccc1C#N)c1nc2ccc([N+](=O)[O-])cc2[nH]c1=O` (centres undefined), for which the EC50 is over 16.6 µM and the IC50 was over 16.6 µM. On to `O=C(Nc1cc2c(oc1=O)CCCCC2)c1ccccc1`, for which the EC50 was over 200 µM and the IC50 was over 200 µM.

Turning to `CC(=O)OCc1cc(-c2nc3ccccc3[nH]c2=O)nn1-c1ccc(Cl)cc1`, the EC50 was over 200 µM and the IC50 was over 200 µM.

`O=C(NN1C(=O)C(Cl)C1c1cccc(Cl)c1)c1ccccc1O` (centres undefined): the EC50 is over 74.1 µM and the IC50 is over 74.1 µM. Turning to `O=C1O/C(=C(/Cl)c2cccc3ccccc23)c2ccccc21`, the result was inactive.

As to `Cn1cc(NC(=O)Nc2cc(C(=O)Nc3cc(C(=O)Nc4ccc(P(=O)(O)O)c5cc(P(=O)(O)O)ccc45)n(C)c3)n(C)c2)cc1C(=O)Nc1cc(C(=O)Nc2ccc(P(=O)(O)O)c3cc(P(=O)(O)O)ccc23)n(C)c1`, the EC50 is over 49 µM and the IC50 was 31.6 µM. Take `O=C(NCCCCNCCCNC(=O)C(F)(F)F)C(F)(F)F`: the EC50 is over 200 µM and the IC50 was over 200 µM. `O=NNc1ccc2ccccc2n1`: the EC50 is over 200 µM and the IC50 was over 200 µM. As for `O=C(Nc1ccc(Cl)cc1)c1cc2cc(N=Nc3ccccc3Cl)ccc2oc1=O`, the EC50 was over 16.6 µM and the concentration for half-maximal inhibition (IC50) was over 16.6 µM. Take `O/N=C/[C@H]1COC2(CCCCC2)O1`: the EC50 was over 200 µM and the concentration for half-maximal inhibition (IC50) was over 200 µM.

With `Cc1nc(Cc2n[nH]c(C)n2)n[nH]1`, the EC50 is over 200 µM and the half-maximal inhibitory concentration (IC50) was over 200 µM. As for `Cc1ccc(S(=O)(=O)/C(C#N)=C\N2CC(=O)NC2=S)cc1`, the EC50 was over 200 µM and the IC50 was over 200 µM.

For the compound `CC(C)(C)C(=O)/C=C/c1ccccc1Cl`, the EC50 is over 23.4 µM and the IC50 was over 23.4 µM. Turning to `O=C(O)c1ccc(/C=N\N(CCO)C2=NCCN2)cc1`, the EC50 was over 200 µM and the IC50 is over 200 µM. In the case of `COC(=O)CCC(C)C1CCC2C3=CC(=O)C4CC(OC(C)=O)CCC4(C)C3CC(OC(C)=O)C21C` (centres undefined), the EC50 is over 51.3 µM and the IC50 came out at 37.2 µM. Regarding `c1ccc2[nH]c(CSc3nc4ccccc4s3)nc2c1`, the EC50 is over 200 µM and the IC50 turned out to be 120 µM. As to `Cc1cc2c(cc1Cl)Sc1nccn1S2(=O)=O`, the EC50 is 40.7 µM and the IC50 worked out at 79.4 µM.

With `N#CNC(N)=Nc1ccc(Cl)cc1`, the result was inactive.
